Experimental data as given in US20190201586A1, “Three-Dimensional Tissue Matrix Scaffold System” (Washington State University, priority 2016, published 2019).

Key:
Type in all cases: cell-based
T47D breast cancer cells = test: CCK-8 proliferation assay and drug screening, T47D cells in 2D culture and on 3D scaffolds; conditions: 1 μM; for cell proliferation after administration of the drug: on day 7, 9, 11, 13, 3D and 2D cultures; for response of the cancer cells to the drug in cell-laden TMS cultures compared to the other 3D culture conditions: TMS vs collagen, IrECM, PLGA scaffolds
Protocol: (§1) Proliferation assay in 3D culture. The proliferation of the cells grown on the different scaffolds or treated with the different drugs was measured using the CCK-8 reagent at the time points indicated. Briefly, the cell-laden scaffolds (triplicates for each condition) were cultured in 96-well plates. CCK-8 solution was added at a 1:10 dilution into the cultures. The colorimetric absorbance of the supernatants of the cultures that reflects the cell proliferation rate was measured at 490 nm using a Synergy 2 microplate reader (BioTek) after 4 hours of incubation (37° C., 5% CO2). Error bars represent standard deviations (s.d.) of the means of three independent experiments.
(§2) Drug screening. The T47D and BT474 breast cancer cells were used to test the efficacies of the two anticancer drugs, HT and Taxol, in 2D and 3D cultures. 2×10^3 cells/well and 1×10^5 cells/scaffold (in triplicates) were seeded on 2D surface and the 3D scaffolds, respectively, and cultured in 96-well plates for 7 days. The drugs at the final concentration of 1 μM were administered separately to the cultures on day 7, 9, 11, 13 of culture for 24 hours, and cell survival as well as proliferation status assessed on day 1, 8, 10, 12, 14, 21 using the CCK-8 reagent and the Live/Dead assay, respectively. After the measurement on day 14, a seven-day recovering period was included to evaluate the post-treatment proliferation potential of the cells. Three independent experiments were performed for statistical significance.

T47D cells = test: Live/Dead Cell staining of scaffold cultures after drug treatment; conditions: T47D-laden DBT-TMS and PLGA scaffolds; 1 μM
Protocol: Live/Dead Cell staining. The survival of the cells grown on the 3D scaffolds were assessed using the Live/Dead Cell Staining kit. The cell-carrying scaffolds at different time points or under different treatment conditions were collected and manually sectioned at 250-500 μm of thickness. The sections were washed twice with 1×PBS (37° C.), incubated in the staining solution (2 μM of calcein-AM and 4 μM of EhtD-III in 1×PBS) at RT for 45 minutes, and imaged using fluorescence microscopy. Calcein-AM stains live cells green (under EGFP filter), while EthD-III stains dead cells red (under Texas Red filter).
as §2, with “Three independent experiments were performed for statistical significance.” left out

[1] = test system: BT474 breast cancer cells; test: CCK-8 proliferation assay and drug screening, BT474 cells in 2D culture and on 3D scaffolds; conditions: 1 μM; for cell proliferation after administration of the drug: on day 7, 9, 11, 13, 3D and 2D cultures; for response of the cancer cells to the drug in cell-laden TMS cultures compared to the other 3D culture conditions: TMS vs collagen, IrECM, PLGA scaffolds
Protocol: as §1, §2

| Structure (SMILES) | cell proliferation after administration of the drug (T47D breast cancer cells) | response of the cancer cells to the drug in cell-laden TMS cultures compared to the other 3D culture conditions (T47D breast cancer cells) | cell proliferation and clustering over the period of treatment (Live/Dead staining) (T47D cells) | cell proliferation after administration of the drug [1] | response of the cancer cells to the drug in cell-laden TMS cultures compared to the other 3D culture conditions [1] |
| --- | --- | --- | --- | --- | --- |
| CC/C(=C(\c1ccc(O)cc1)c1ccc(OCCN(C)C)cc1)c1ccccc1 [HT, (Z)-4-Hydroxytamoxifen] | time-dependently inhibited cell proliferation | lower response | markedly attenuated | time-dependently inhibited cell proliferation | lower response |
| CC(=O)O[C@H]1C(=O)[C@@]2(C)[C@H]([C@H](OC(=O)c3ccccc3)[C@]3(O)C[C@H](OC(=O)[C@H](O)[C@@H](NC(=O)c4ccccc4)c4ccccc4)C(C)=C1C3(C)C)[C@]1(OC(C)=O)CO[C@@H]1C[C@@H]2O [Taxol, Paclitaxel] | time-dependently inhibited cell proliferation | lower response | markedly attenuated | time-dependently inhibited cell proliferation | lower response |
